Assay: pKa of amino group of the heterocyclic ring
Type: physicochemical
Conditions: amino group in heterocyclic ring

| pKa | SMILES |
| --- | --- |
| 9.1 | CC(=O)CN1CCNCC1 [1-(1-piperazinyl)-2-propanone] |
| 4.3 | O=C1CNCC(=O)N1 [2,6-piperazinedione] |
| 6.6 | CN1CC(CO)NCC1=O (stereo not drawn) [5-hydroxymethyl-1-methyl-2-piperazinone] |

From US11123683B2, “Carbon dioxide absorbent and apparatus of separating and recovering carbon dioxide” (Kabushiki Kaisha Toshiba, priority 2017, dated 2021)
